Reference: patent publication US20250368666A1, “INDAZOLE COMPOUNDS” (TYRA BIOSCIENCES, INC., priority 2022, published 2025)

Key:
[1] = tested on: HuH7 cell line (FGF19 amplification); experiment: Cancer cell line cell viability assay (Cell Titer-Glo), 120 hr; assay type: cell-based; details: Homo sapiens, Huh-7
Summary of the method: (§1)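 Following overnight attachment, each line receives compound in triplicate across nine 4-fold dilutions starting at 3 μM, with DMSO backfill for equal solvent. Luminescence after Cell Titer-Glo 2.0 addition gives percent viability versus DMSO control, fitted by 4-parameter logistic for IC50.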

[2] = tested on: KATO-III cell line (FGFR2 amplification); experiment: Cancer cell line cell viability assay (Cell Titer-Glo), 72 hr; assay type: cell-based; details: Homo sapiens, KATO III
Summary of the method: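 Luminescent ATP read-out (Cell Titer-Glo 2.0) after compound exposure, normalised to DMSO-only wells. Dosing: 9 concentrations, 4-fold steps, top 3 μM, triplicates. IC50 derived by log(inhibitor) vs. response 4-parameter fit.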

[3] = tested on: RT112/84 cell line (FGFR3-fusion); experiment: as above; assay type: cell-based; details: Homo sapiens, RT112/84, RT112/84 cell line (FGFR3-fusion)
Summary of the method: as §1

[4] = tested on: KG-1 cell line (FGFR 1-fusion); experiment: as above; assay type: cell-based; details: Homo sapiens, KG-1, KG-1 cell line (FGFR1-fusion)
Summary of the method: as §1

FGFR3 = target: T1, FGFR3 (Homo sapiens, UniProt P22607); experiment: Kinase binding assay (kinase-tagged T7 phage, affinity beads, qPCR), Kd; details: read-out: FGFR3 (Kd nM)
T1 construct: made in house; host or cells: E. coli (BL21-derived), T7 phage
Summary of the method: (§2)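 Readout was qPCR of kinase eluted from ligand-coated affinity beads after competition with test compound. Kinases were expressed as T7 phage fusions in E. coli. Binding constants were derived by non-linear least-squares Hill fitting, Hill slope −1.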

FGFR2 = target: T2, FGFR2 (Homo sapiens, UniProt P21802); experiment: as above; details: read-out: FGFR2 (Kd nM)
T2 construct: made in house; host or cells: E. coli (BL21-derived), T7 phage
Summary of the method: as §2

FGFR1 = target: T3, FGFR1 (Homo sapiens, UniProt P11362); experiment: as above; details: read-out: FGFR1 (Kd nM)
T3 construct: made in house; host or cells: E. coli (BL21-derived), T7 phage
Summary of the method: as §2

FGFR4 = target: T4, FGFR4 (Homo sapiens, UniProt P22455); experiment: as above; details: read-out: FGFR4 (Kd nM)
T4 construct: made in house; host or cells: E. coli (BL21-derived), T7 phage
Summary of the method: as §2

FGFR3 (V555M) = target: T5, FGFR3 (V555M) (Homo sapiens, UniProt P22607, V555M); experiment: as above; details: V555M mutant; read-out: FGFR3 (V555M) (Kd nM)
T5 construct: made in house; host or cells: E. coli (BL21-derived), T7 phage
Summary of the method: as §2

T2 sequence (P21802 22-821): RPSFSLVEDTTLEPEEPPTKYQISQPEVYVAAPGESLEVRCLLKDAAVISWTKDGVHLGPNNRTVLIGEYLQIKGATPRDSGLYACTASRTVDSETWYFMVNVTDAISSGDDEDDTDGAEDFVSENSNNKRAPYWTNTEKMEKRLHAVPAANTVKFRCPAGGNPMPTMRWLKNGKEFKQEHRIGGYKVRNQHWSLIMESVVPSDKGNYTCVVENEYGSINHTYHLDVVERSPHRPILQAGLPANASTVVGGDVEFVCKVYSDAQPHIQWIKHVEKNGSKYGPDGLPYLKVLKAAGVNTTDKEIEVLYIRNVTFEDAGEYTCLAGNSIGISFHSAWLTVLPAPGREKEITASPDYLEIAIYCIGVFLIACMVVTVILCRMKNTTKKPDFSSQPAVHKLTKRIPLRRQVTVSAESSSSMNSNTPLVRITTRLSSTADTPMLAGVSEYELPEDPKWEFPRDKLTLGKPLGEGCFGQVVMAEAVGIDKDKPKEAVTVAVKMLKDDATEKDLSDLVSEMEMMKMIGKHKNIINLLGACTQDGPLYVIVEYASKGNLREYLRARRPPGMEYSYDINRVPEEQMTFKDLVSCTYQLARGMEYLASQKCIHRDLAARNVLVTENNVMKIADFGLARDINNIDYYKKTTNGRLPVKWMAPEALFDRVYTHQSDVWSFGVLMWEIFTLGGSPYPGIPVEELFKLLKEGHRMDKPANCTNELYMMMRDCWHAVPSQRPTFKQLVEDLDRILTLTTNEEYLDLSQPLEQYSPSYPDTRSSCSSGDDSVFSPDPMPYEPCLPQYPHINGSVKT
T1 sequence (P22607 23-806): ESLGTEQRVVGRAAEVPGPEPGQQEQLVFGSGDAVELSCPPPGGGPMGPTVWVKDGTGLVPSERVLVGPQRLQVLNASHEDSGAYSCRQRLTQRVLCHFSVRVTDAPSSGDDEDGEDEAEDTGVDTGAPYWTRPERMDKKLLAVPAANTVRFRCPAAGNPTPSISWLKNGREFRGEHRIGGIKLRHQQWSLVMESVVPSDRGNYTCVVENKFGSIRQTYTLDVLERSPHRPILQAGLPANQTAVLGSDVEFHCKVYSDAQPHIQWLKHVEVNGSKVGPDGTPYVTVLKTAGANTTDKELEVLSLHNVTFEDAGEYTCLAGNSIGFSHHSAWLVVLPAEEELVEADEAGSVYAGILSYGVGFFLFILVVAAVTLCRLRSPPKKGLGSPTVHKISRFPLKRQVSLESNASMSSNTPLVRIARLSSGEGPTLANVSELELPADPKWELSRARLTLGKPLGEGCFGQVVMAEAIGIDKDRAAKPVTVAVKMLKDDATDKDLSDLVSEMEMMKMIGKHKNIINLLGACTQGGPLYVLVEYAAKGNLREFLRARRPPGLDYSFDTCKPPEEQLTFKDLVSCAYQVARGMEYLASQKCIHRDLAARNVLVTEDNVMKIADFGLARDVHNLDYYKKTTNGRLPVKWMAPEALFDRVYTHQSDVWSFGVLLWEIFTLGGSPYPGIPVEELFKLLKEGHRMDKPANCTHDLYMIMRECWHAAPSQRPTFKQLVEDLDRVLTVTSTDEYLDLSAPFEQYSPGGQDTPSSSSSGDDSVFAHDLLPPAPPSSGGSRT
T4 sequence (P22455 22-802): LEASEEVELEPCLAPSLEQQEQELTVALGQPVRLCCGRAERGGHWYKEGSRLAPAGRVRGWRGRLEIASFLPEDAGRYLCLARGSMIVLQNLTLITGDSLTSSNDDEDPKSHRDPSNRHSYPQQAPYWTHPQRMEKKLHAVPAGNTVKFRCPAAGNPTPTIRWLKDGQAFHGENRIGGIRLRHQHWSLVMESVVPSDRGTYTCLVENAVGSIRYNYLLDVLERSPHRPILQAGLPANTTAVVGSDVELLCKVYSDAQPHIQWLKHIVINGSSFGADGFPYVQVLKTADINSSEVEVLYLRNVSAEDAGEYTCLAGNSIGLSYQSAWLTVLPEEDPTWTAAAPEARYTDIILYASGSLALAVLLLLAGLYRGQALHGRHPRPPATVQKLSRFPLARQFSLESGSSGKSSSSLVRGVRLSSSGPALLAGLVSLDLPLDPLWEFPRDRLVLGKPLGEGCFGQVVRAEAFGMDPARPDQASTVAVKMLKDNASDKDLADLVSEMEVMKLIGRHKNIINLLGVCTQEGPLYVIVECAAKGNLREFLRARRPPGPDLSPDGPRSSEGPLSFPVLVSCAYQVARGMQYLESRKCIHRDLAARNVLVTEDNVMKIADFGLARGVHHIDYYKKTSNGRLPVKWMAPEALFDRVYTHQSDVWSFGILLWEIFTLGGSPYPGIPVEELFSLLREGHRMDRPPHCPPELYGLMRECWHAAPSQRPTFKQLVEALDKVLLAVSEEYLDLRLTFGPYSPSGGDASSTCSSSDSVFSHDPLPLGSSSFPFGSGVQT
T3 sequence (P11362 22-822): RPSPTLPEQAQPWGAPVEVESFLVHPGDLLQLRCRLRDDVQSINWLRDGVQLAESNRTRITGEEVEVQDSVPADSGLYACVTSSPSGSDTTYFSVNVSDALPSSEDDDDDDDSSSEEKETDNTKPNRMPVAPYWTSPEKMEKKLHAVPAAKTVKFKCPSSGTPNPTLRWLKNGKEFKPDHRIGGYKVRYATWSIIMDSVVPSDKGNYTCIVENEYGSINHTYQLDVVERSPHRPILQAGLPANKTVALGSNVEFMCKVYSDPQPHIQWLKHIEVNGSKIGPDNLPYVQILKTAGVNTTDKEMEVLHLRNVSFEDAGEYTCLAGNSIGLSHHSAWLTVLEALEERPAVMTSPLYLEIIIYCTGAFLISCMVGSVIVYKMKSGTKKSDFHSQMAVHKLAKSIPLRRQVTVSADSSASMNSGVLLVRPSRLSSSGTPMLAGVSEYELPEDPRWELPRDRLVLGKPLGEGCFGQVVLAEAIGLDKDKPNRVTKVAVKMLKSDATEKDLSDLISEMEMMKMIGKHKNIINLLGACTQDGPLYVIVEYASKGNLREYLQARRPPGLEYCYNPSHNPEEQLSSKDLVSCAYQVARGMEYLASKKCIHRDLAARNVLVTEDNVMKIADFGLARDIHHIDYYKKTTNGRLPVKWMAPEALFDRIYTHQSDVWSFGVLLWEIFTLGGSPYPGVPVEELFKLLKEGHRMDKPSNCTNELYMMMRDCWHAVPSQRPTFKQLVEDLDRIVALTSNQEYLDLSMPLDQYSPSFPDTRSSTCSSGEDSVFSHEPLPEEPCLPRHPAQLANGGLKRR
T5 sequence (P22607 23-806 V555M): as the sequence (P22607 23-806) above, with V533M counted along it

| SMILES | IC50 [1] [nM] | IC50 [2] [nM] | IC50 [3] [nM] | IC50 [4] [nM] | Kd (FGFR3) [nM] | Kd (FGFR2) [nM] | Kd (FGFR1) [nM] | Kd (FGFR4) [nM] | Kd (FGFR3 (V555M)) [nM] |
| --- | --- | --- | --- | --- | --- | --- | --- | --- | --- |
| C=CCC1(N)CN(c2ncc(-c3n[nH]c4cc(OC)c(O[C@H](C)c5c(Cl)cncc5Cl)cc34)cc2C#N)C1 [Example 362, (R)-2-(3-ally1-3-aminoazetidin-1-yl)-5-(5-(1-(3,5-dichloropyridin-4-yl)ethoxy)-6-methoxy-1H-indazol-3-yl)nicotinonitrile] | 0.1 to 50 | 50 to 200 | 0.1 to 50 | 50 to 200 | 1 to 50 | 1 to 50 | 1 to 50 | 1 to 50 |  |
| COc1cc2[nH]nc(-c3cnc(N4CC(N)(CC=C(C)C)C4)c(C#N)c3)c2cc1O[C@H](C)c1c(Cl)cncc1Cl [Example 363, (R)-2-(3-amino-3-(3-methylbut-2-en-1-yl)azetidin-1-yl)-5-(5-(1-(3,5-dichloropyridin-4-yl)ethoxy)-6-methoxy-1H-indazol-3-yl)nicotinonitrile] | 0.1 to 50 | 50 to 200 | 0.1 to 50 | 200 to 1000 | 1 to 50 | 1 to 50 | 1 to 50 | 1 to 50 |  |
| COc1cc2[nH]nc(-c3cnc(N4CC(N)(CCS(C)(=O)=O)C4)c(C#N)c3)c2cc1O[C@H](C)c1c(Cl)cncc1Cl [Example 364, (R)-2-(3-amino-3-(2-(methylsulfonyl)ethyl)azetidin-1-yl)-5-(5-(1-(3,5-dichloropyridin-4-yl)ethoxy)-6-methoxy-1H-indazol-3-yl)nicotinonitrile] | 0.1 to 50 | 50 to 200 | 50 to 200 | > 1000 | 1 to 50 | 1 to 50 | 1 to 50 | 1 to 50 |  |
| CCC1(N)CN(c2ncc(-c3n[nH]c4cc(OC)c(O[C@H](C)c5c(Cl)cncc5Cl)cc34)cc2C#N)C1 [Example 365, 2-(3-amino-3-ethyl-azetidin-1-yl)-5-[5-[(1R)-1-(3,5-dichloro-4-pyridyl)ethoxy]-6-methoxy-1H-indazol-3-yl]pyridine-3-carbonitrile] | 0.1 to 50 | 50 to 200 | 0.1 to 50 | 0.1 to 50 | 1 to 50 | 1 to 50 | 1 to 50 | 1 to 50 |  |

Second part, the molecule after the results:

| IC50 [1] [nM] | IC50 [2] [nM] | IC50 [3] [nM] | IC50 [4] [nM] | Kd (FGFR3) [nM] | Kd (FGFR2) [nM] | Kd (FGFR1) [nM] | Kd (FGFR4) [nM] | Kd (FGFR3 (V555M)) [nM] | SMILES |
| --- | --- | --- | --- | --- | --- | --- | --- | --- | --- |
| 0.1 to 50 | 200 to 1000 | 50 to 200 | 200 to 1000 | 1 to 50 | 50 to 300 | 50 to 300 | 1 to 50 | 1 to 50 | C[C@@H](Oc1ccc2[nH]nc(-c3cnc(N4CC(C)(NC5COC5)C4)c(C#N)c3)c2c1)c1c(Cl)cncc1Cl [Example 4, (R)-5-(5-(1-(3,5-dichloropyridin-4-yl)ethoxy)-1H-indazol-3-yl)-2-(3-methyl-3-(oxetan-3-ylamino)azetidin-1-yl)nicotinonitrile] |
| 0.1 to 50 | 50 to 200 | 0.1 to 50 | 200 to 1000 | 1 to 50 | 50 to 300 | 50 to 300 | 1 to 50 | 1 to 50 | C[C@@H](Oc1ccc2[nH]nc(-c3cnc(N4CC(C)(NC5CS(=O)(=O)C5)C4)c(C#N)c3)c2c1)c1c(Cl)cncc1Cl [Example 7, (R)-5-(5-(1-(3,5-dichloropyridin-4-yl)ethoxy)-1H-indazol-3-yl)-2-(3-((1,1-dioxidothietan-3-yl)amino)-3-methylazetidin-1-yl)nicotinonitrile] |
| 50 to 200 | 50 to 200 | 50 to 200 | 200 to 1000 | 1 to 50 | 1 to 50 | 1 to 50 | 1 to 50 |  | COc1cc2[nH]nc(-c3cnc(N4CC(N)(CC(C)(C)O)C4)c(C#N)c3)c2cc1O[C@H](C)c1c(Cl)cncc1Cl [Example 361, (R)-2-(3-amino-3-(2-hydroxy-2-methylpropyl)azetidin-1-yl)-5-(5-(1-(3,5-dichloropyridin-4-yl)ethoxy)-6-methoxy-1H-indazol-3-yl)nicotinonitrile] |
